# Laboratory results: patent publication US4587256A, “Novel thiazolidine derivatives” (Hoffmann-La Roche Inc., priority 1983, dated 1986)
# pIC50: −log10 of the molar value.
# What was measured:
# galactosaemic rats = assay: dulcitol concentration in the eye lens of galactosaemic rats (30% galactose diet); format: in vivo; details: compared to untreated galactosaemic animals
# Procedure: (§1) Furthermore, the compound of formula I in which R^1 is fluorine and R^2 is hydrogen was investigated for its activity on galactosaemic rats (30% galactose diet). More particularly, the dulcitol concentration in the eye lens was determined after 5 applications of 5 and of 20 mg/kg body weight per os over 2 days. Similarly, 20 mg/kg were administered intraperitoneally in an additional experiment. […] The same compound was also administered to streptozotocin-treated, diabetic rats (3 times 20 mg/kg p.o., 4, 8 and 24 hours after streptozotocin administration). Three (3) hours after the administration of the last dosage, the sorbitol concentration was determined in the eye lens and in the sciatic nerve.
# [1] = test system: streptozotocin-treated, diabetic rats; assay: sorbitol concentration in eye lens and sciatic nerve of streptozotocin-treated, diabetic rats; format: in vivo; details: 3 times 20 mg/kg p.o. (4, 8 and 24 hours after streptozotocin), 3 hours after last dosage
# Procedure: as §1
# [2] = biological target: T1, aldose reductase from calves lenses (Bos taurus, UniProt P16116); assay: inhibiting activity of aldose reductase from calves lenses; format: biochemical; details: read-out: IC50 values (concentrations which bring about 50% enzyme inhibition)
# T1 construct: aldose reductase from calves lenses; from tissue; host or cells: calf lens
Structure (SMILES),dulcitol concentration in the eye lens (galactosaemic rats; 20 mg/kg administered intraperitoneally),dulcitol concentration in the eye lens (galactosaemic rats; 5 applications of 5 mg/kg body weight per os over 2 days),dulcitol concentration in the eye lens (galactosaemic rats; 5 applications of 20 mg/kg body weight per os over 2 days),sorbitol concentration in the eye lens [1],sorbitol concentration in the sciatic nerve [1],pIC50 [2]
"O=C1NC(=O)C2(CCOc3ccc(F)cc32)S1 (racemic) [(±)-6-fluoro-2,3-dihydrospiro[4H-1-benzopyran-4,5'-thiazolidine]-2',4'-dione]",significant decrease,significant decrease,significant decrease,clear decrease,clear decrease,7.00
"CC(=O)Nc1cc(F)cc2c1OCCC21SC(=O)NC1=O (racemic) [(±)-6-fluoro-8-acetamido-2,3-dihydrospiro[4H-1-benzopyran-4,5'-thiazolidine]-2',4'-dione]",,,,,,8.10
"O=C1NC(=O)C2(CCOc3c([N+](=O)[O-])cc(F)cc32)S1 (racemic) [(±)-6-fluoro-8-nitro-2,3-dihydrospiro[4H-1-benzopyran-4,5'-thiazolidine]-2',4'-dione]",,,,,,7.05
